Test [1] concerns C. sporogenes. Kind of test: Pure culture growth test of C. sporogenes with added amino acid (OD600). It is filed as cell-based, Clostridium sporogenes. To be noted: amino acid added at final concentration 4 mM; 1/5 diluted medium; vs control; FIG. 1-2. Here is the method: Amino acids that promote the growth of an IPA-producing bacterium C. sporogenes were narrowed down using a genome-scale metabolic model (GEM) simulation, and then evaluated in a pure culture system. The GEM simulation was performed using COBRA toolbox of MATLAB (registered trademark), and amino acids that affected the growth of C. sporogenes when 20 types of amino acids were removed one by one were selected. Then, the influence of amino acids selected by GEM analysis on the growth of C. sporogenes was investigated in a pure culture system. As C. sporogenes, an in-house strain from Ajinomoto Co., Inc. was used, and as the culture medium, ⅕ diluted enhanced Clostridium medium (Difico, #62620609) was used. Each amino acid was added to the medium to a final concentration of 4 mM, and the growth of C. sporogenes was evaluated using OD600 as an indicator. The control contained no addition of amino acid (culture medium only).

In test [2] the test system is C. sporogenes. The experiment in a line: IPA production by concentrated C. sporogenes bacterial solution with Trp and/or Phe. It counts as cell-based, Clostridium sporogenes. To be noted: 37° C., anaerobic, 24 hr; Trp 0.3 mM fixed, Phe 0.3-1.2 mM; FIG. 1-3. The procedure: To evaluate the influence of Trp and a combination of Trp and Phe on IPA production, pure culture experiments using C. sporogenes were performed. As C. sporogenes, in-house strain of Ajinomoto Co., Inc. was used. First, 800 μL of C. sporogenes glycerol stock was added to 40 mL of reinforced Clostridium medium and cultured under anaerobic conditions at 37° C. for 18 hr. After culturing, centrifugation was performed at 9,100×g for 5 min at 4° C., and the precipitate was collected under anaerobic conditions, washed twice with PBS, and finally suspended in 5 mL of PBS after anaerobic treatment to obtain a concentrated bacterial solution. The influence of the concentrated bacterial solution on IPA production was investigated. […] Furthermore, similar to Experimental Example 1, the influence of Phe/Trp molar ratios between 1 and 10 on IPA production in C. sporogenes was evaluated using GEM analysis.
The IPA concentration in the culture supernatant was analyzed using an LC-MS/MS mass spectrometry system (mass spectrometer: SCIEX API3200, pump: Shimadzu Corporation LC-20AD, autosampler: Shimadzu Corporation SIL-20AC, column oven: Shimadzu Corporation CTO-20AC, system controller: Shimadzu Corporation CBM-20A, degasser: Shimadzu Corporation DGU-20A, nitrogen generator: Airtech AT5NP-25CSL). […]

The source of these data is patent US20260232712A1, “Food for Improving Intestinal Environment” (AJINOMOTO CO., INC., priority 2023, published 2026).

On to `N[C@@H](Cc1ccccc1)C(=O)O` [Phe, L-phenylalanine], for which, in the test with C. sporogenes [1], the “growth of C. sporogenes (OD600)” value is reported as “promoted the growth of C. sporogenes”. The “IPA in the culture supernatant” value in the test on C. sporogenes [2] is “no effect”.
